From patent US9133180B2, “Aurora and FLT3 kinases modulators” (SAREUM LIMITED, priority 2012, dated 2015) come the findings set out here.

For one series, the target named is Aurora B kinase (Homo sapiens (Human), UniProt Q96GD4). The series can be described thus: Aurora B kinase 33P-ATP filter assay (Reaction Biology Corp.). Type of series: biochemical. The method, then: The ability of the compounds of the invention to inhibit FLT3 kinase and Aurora A and Aurora B kinases was determined using the assays described below.
Aurora B kinase, sequence (Q96GD4 whole entry): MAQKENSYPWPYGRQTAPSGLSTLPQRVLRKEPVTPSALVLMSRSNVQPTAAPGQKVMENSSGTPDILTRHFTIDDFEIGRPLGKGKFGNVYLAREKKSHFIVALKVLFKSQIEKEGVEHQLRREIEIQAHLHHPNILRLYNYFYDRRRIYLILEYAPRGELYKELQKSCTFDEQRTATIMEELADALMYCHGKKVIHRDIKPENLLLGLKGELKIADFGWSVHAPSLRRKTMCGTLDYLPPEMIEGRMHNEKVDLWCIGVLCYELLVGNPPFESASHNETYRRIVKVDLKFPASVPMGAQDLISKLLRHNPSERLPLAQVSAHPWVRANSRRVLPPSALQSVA
Kinase assays were performed at Reaction Biology Corp., Malvern, Pa., USA, using the following general procedure:
1) Prepare indicated substrate in freshly prepared Base Reaction Buffer (20 mM Hepes pH 7.5, 10 mM MgCl2, 1 mM EGTA, 0.02% Brij35, 0.02 mg/ml BSA, 0.1 mM Na3VO4, 2 mM DTT, 1% DMSO).
2) Deliver cofactors (1.5 mM CaCl2, 16 ug/mL Calmodulin, 2 mM MnCl2) to the substrate solution above.
3) Deliver indicated kinase into the substrate solution and gently mix
4) Deliver varying concentrations of test compound in DMSO into the kinase reaction mixture.
5) Deliver ^33P-ATP (specific activity 0.01 µCi/µL final) into the reaction mixture to initiate the reaction.
6) Incubate kinase reaction for 120 min at room temperature.
7) Reactions are spotted onto P81 ion exchange filter paper (Whatman #3698-915)
8) Unbound phosphate is removed by washing filters extensively in 0.75% phosphoric acid.
9) ^33P signal was determined using Typhoon phosphorimagers (GE Healthcare).
Substrates: Kemptide=[H-LRRASLG] Abltide=[[…]]

For another series, the system named is CCRF-CEM/VCR. The series can be described thus: CellTiter-Blue assay, haematological cell line. Type of series: cell-based. As to conditions: Homo sapiens, 96 h; CCRF-CEM/VCR (ALL), four days treatment. The method, then: (§1) The compounds of Examples 2 and 7 were tested against a range of human haematological cell lines using the CellTiter-Blue® assay (#G8081, Promega) according to the manufacturer's instructions. Cells were harvested from exponential phase cultures, counted and plated in 96 well flat-bottom microtiter plates at a cell density of 20,000-90,000 cells/well. After a 24 h recovery period to allow the cells to resume exponential growth, 10 μl of culture medium (four control wells/plate) or of culture medium with test compound were added. The compounds were applied in duplicates at ten concentrations and treatment continued for four days. After treatment of cells, 10 μl/well CellTiter-Blue® reagent was added. Following an incubation period of up to four hours, fluorescence (FU) was measured by using the EnVision Xcite multilabel reader (excitation λ=531 nm, emission λ=615 nm). The compounds were tested in two to four independent experiments for each cell line.
Background: Alamar Blue is a resazurin reagent that responds to reducing activity.

A further series relates to CCRF-CEM. The series can be described thus: CellTiter-Blue assay, haematological cell line. Type of series: cell-based. As to conditions: Homo sapiens, 96 h; CCRF-CEM (ALL), four days treatment. The method, then: as §1
For the next series, the system named is EM-2. The series can be described thus: CellTiter-Blue assay, haematological cell line. To be noted: Homo sapiens, 96 h; EM-2 (CML), four days treatment. The class given is cell-based. The method, then: as §1
For another series, the system named is HL-60. The series can be described thus: CellTiter-Blue assay, haematological cell line. The class given is cell-based. As to conditions: Homo sapiens, 96 h; HL-60 (AML), four days treatment. As to the method: as §1
For the next series, the system named is HUT-78. Description: CellTiter-Blue assay, haematological cell line. Type of series: cell-based. As to conditions: Homo sapiens, HuT78, 96 h; HUT-78 (NHL), four days treatment. As to the method: as §1
The test system of another series is IM-9. Description: CellTiter-Blue assay, haematological cell line. Type of series: cell-based. As to conditions: Homo sapiens, 96 h; IM-9 (MM), four days treatment. As to the method: as §1
Another series concerns JURKAT. The series can be described thus: CellTiter-Blue assay, haematological cell line. The class given is cell-based. As to conditions: Homo sapiens, 96 h; JURKAT (ALL), four days treatment. As to the method: as §1
For another series, the system named is JURL-MK1. Description: CellTiter-Blue assay, haematological cell line. Type of series: cell-based. As to conditions: Homo sapiens, 96 h; JURL-MK1 (CML), four days treatment. The method, then:
as §1

The test system of another series is K-562. The series can be described thus: CellTiter-Blue assay, haematological cell line. The class given is cell-based. To be noted: Homo sapiens, K562, 96 h; K-562 (CML), four days treatment. As to the method:
as §1

In another series the test system is KCL-22. The series can be described thus: CellTiter-Blue assay, haematological cell line. Type of series: cell-based. To be noted: Homo sapiens, 96 h; KCL-22 (CML), four days treatment. The method, then:
as §1

In a further series the test system is KG-1. Description: CellTiter-Blue assay, haematological cell line. Type of series: cell-based. To be noted: Homo sapiens, 96 h; KG-1 (AML), four days treatment. As to the method:
as §1

A further series deals with KM-H2. Description: CellTiter-Blue assay, haematological cell line. Type of series: cell-based. As to conditions: Homo sapiens, 96 h; KM-H2 (HL), four days treatment. As to the method:
as §1

A further series concerns LP-1. Description: CellTiter-Blue assay, haematological cell line. To be noted: Homo sapiens, 96 h; LP-1 (MM), four days treatment. Type of series: cell-based. The method, then:
as §1

A further series concerns MEG-01. Description: CellTiter-Blue assay, haematological cell line. The class given is cell-based. As to conditions: Homo sapiens, 96 h; MEG-01 (CML), four days treatment. As to the method:
as §1

The subject of a further series is MOLT-4. The series can be described thus: CellTiter-Blue assay, haematological cell line. To be noted: Homo sapiens, 96 h; MOLT-4 (ALL), four days treatment. Type of series: cell-based. The method, then:
as §1

For the next series, the system named is MV4-11. The series can be described thus: CellTiter-Blue assay, haematological cell line. Type of series: cell-based. As to conditions: Homo sapiens, 96 h; MV4-11 (AML), four days treatment. As to the method:
as §1

The next series deals with NCI-H929. The series can be described thus: CellTiter-Blue assay, haematological cell line. Type of series: cell-based. To be noted: Homo sapiens, 96 h; NCI-H929 (MM), four days treatment. The method, then:
as §1

Another series relates to NOMO-1. The series can be described thus: CellTiter-Blue assay, haematological cell line. The class given is cell-based. As to conditions: Homo sapiens, 96 h; NOMO-1 (AML), four days treatment. As to the method:
as §1

Another series deals with RAJI. The series can be described thus: CellTiter-Blue assay, haematological cell line. As to conditions: Homo sapiens, 96 h; RAJI (NHL), four days treatment. The class given is cell-based. The method, then: as §1
The subject of another series is U-937. Description: CellTiter-Blue assay, haematological cell line. Type of series: cell-based. As to conditions: Homo sapiens, 96 h; U-937 (NHL), four days treatment. The method, then:
as §1

The next series deals with RPMI8226. The series can be described thus: CellTiter-Blue assay, haematological cell line. Type of series: cell-based. As to conditions: Homo sapiens, RPMI-8226, 96 h; RPMI8226 (MM), four days treatment.
Series [1] is described as follows: Body weight / tolerability in MV4-11-bearing nude mice. The class given is in vivo, Balb/c nude mouse. The method, then:
A total of 52 female nude mice were used. The mice were allowed 3 days of acclimatization period before starting the experiment. Mice were implanted subcutaneously (s.c.) with 200 μl of 1×10^7MV4-11 tumour cells in 50% Matrigel in the right flank at the beginning of the study. When tumours reached an average volume of 100-150 mm^3, 32 mice out of the 52 were selected based on tumour volume, and randomly assigned to 4 groups prior to dosing. Each treatment group consisted of 8 tumour-bearing animals (n=8/group).
A comparison group of mice were treated with cytarabine once daily for 5 days on, 2 days off, for 4 cycles.
Mice were weighed at each dosing and the tumour sizes recorded twice each week. Mice were observed closely for any overt signs of adverse, treatment-related side effects and these were recorded if and when they were observed.
Mice were euthanized by CO2 exposure after 4-cycle dose. The tumour volume, weight of dissected tumours, and the mouse body weight were measured and recorded. The tumour inhibitory rate (IR) was calculated by the formula IR=(WV−WT)/WV×100%.

For the compound `Cc1ccc2[nH]ccc2c1-c1nc(C(N)=O)c(-c2ccc(N3CCNC(C)(C)C3)cc2)o1` [Example 2, 2-(5-Methyl-1H-Indol-4-yl)-5-[4-(3,3-dimethyl-piperazin-1-yl)-phenyl]-oxazole-4-carboxylic acid amide], the IC50 at Aurora B kinase turned out to be 5.9 nM; in the series with CCRF-CEM/VCR it was 458 nM; with CCRF-CEM, 50 nM; with EM-2 it was 604 nM; in the series with HL-60 it was 64 nM; in the series with HUT-78, 138 nM. The IC50 turned out to be 70 nM in the series with IM-9; 91 nM in the series with JURKAT; 141 nM in the series with JURL-MK1; 326 nM in the series with K-562; 417 nM in the series on KCL-22; 76 nM in the series on KG-1. For the same compound, the IC50 stood at 189 nM in the series on KM-H2; 1070 nM in the series with LP-1; 633 nM with MEG-01; 48 nM in the series with MOLT-4; 9 nM in the series with MV4-11; 852 nM in the series on NCI-H929. The IC50 in the series with NOMO-1 was found to be 95 nM; in the series with RAJI, 2850 nM; with U-937, 94 nM; in the series on RPMI8226 it was 2140 nM. In [1] (20 mg/kg IV BID), the “toxicity in xenograft study” value was “without any obvious toxicity”.

As to `Cc1cc(F)c2[nH]ccc2c1-c1nc(C(N)=O)c(-c2ccc(N3CCNC(C)(C)C3)cc2)o1` [Example 7, 2-(5-Methyl-7-Fluoro-1H-Indol-4-yl)-5-[4-(3,3-dimethyl-piperazin-1-yl)-phenyl]-oxazole-4-carboxylic acid amide], the IC50 with CCRF-CEM/VCR amounted to 239 nM; with CCRF-CEM, 46 nM; with EM-2 it was 493 nM; in the series with HL-60, 52 nM; with HUT-78, 123 nM; in the series with IM-9, 70 nM. Also, the IC50 in the series on JURKAT amounted to 93 nM; with JURL-MK1, 98 nM; in the series on K-562 it was 219 nM; in the series with KCL-22, 366 nM; with KG-1 it was 137 nM; in the series on KM-H2, 137 nM. Further, the IC50 in the series with LP-1 came out at 1010 nM; in the series on MEG-01, 468 nM; in the series on MOLT-4, 45 nM; in the series on MV4-11, 9 nM; with NCI-H929, 1400 nM; in the series with NOMO-1, 61 nM. For the same compound, the results for the IC50 with RAJI and in the series with U-937 were 1800 nM and 155 nM, respectively. The “toxicity in xenograft study” value in series [1] (30 mg/kg IV BID) was “without any obvious toxicity”.

What is called IC50 is the concentration that gives 50% inhibition. Lower therefore signals greater potency.
